Entries after “also recorded” stand apart in the source; their conditions may differ.
Assays:
Format in all cases: in vivo, human
[1] = Phase 1 Part B multiple ascending dose (MAD), blood pressure, healthy participants
Protocol: The study was performed in 3 parts in 112 healthy male and female participants, including 24 Japanese participants. Female participants were to be not of childbearing potential. The present study was designed to evaluate the safety and tolerability, PK, and exploratory PD of an oral suspension of Compound A. Parts A and B (Cohort B1 only) enrolled healthy participants and was conducted at a site in The Netherlands and Part B (Cohort B2 to B5) enrolled healthy non-Japanese participants and was conducted at a site in the United Kingdom (UK). Part C enrolled healthy Japanese participants and was conducted at the same site in the UK.
Part B was a MAD study in a planned number of 6 sequential dose escalation cohorts (10 mg QD, 30 mg QD, 30 mg BID, 60 mg BID, 125 mg BID, and ≤250 mg BID) of 8 healthy participants (6 active+2 placebo) each, under fasted conditions. However, Cohort B6 (≤250 mg BID) was cancelled because sufficient safety and PK data had been obtained at doses up to 125 mg BID. Eligible participants received study drug (Compound A or placebo) administered orally for 14 days.
Physical examinations, vital sign measurements (including orthostasis testing in Cohort A6, Cohort B3 to B5, and C1 to C3 at selected time points), 12-lead electrocardiogram (ECG), and clinical laboratory evaluations were performed at selected times throughout the study. In addition, Holter monitoring was performed for the first 24 hours post dose on Day 1 in Part A (not in FE/pH cohort), and also for the first 24 hours post dose on Day 1 and Day 14 in Parts B and C. Participants were closely monitored for adverse events (AEs). Blood samples were collected for up to 14 days (follow-up visit) after (last) study drug administration for PK analysis. In addition, blood and urine were collected for exploratory biomarker assessments and for biobanking of samples for potential analyses. Urine was collected for potential PK analysis for up to 96 hours after a single dose of Compound A or placebo was administered in the SAD part, and for up to 24 hours after the first (morning) dose of study drug on Day 1 and for up to 24 hours after the last (morning) dose of study drug on Day 14 in the MAD parts.

[2] = Phase 2 IPF cohort safety: adverse events, low blood pressure criteria, dose reductions
Protocol: (§1) A total of 278 participants with IPF were randomized and 276 participants were treated as of […] analyses data cut-off (4 Aug. 2022). Male and female participants ≥40 years of age with IPF and percent predicted forced vital capacity (ppFVC) ≥40% and percent predicted DLCO (ppDLCO) ≥25%; diagnosed within 7 years of screening; having a centrally-read chest HRCT obtained at screening that was consistent with UIP or probable UIP, or having a lung biopsy consistent with UIP, were eligible to enter the study. The mean baseline ppFVC for all subjects was 76.5%. In the primary IPF cohort, participants were randomized (1:1:1) to receive 30 mg or 60 mg Compound A or placebo (PBO) twice daily for 26 weeks. Participants were stratified by standard of care (SoC) IPF therapy (pirfenidone versus nintedanib versus none) and region (Japan versus Rest of World) at randomization.
Patient experiences any of the following, confirmed by retest within 15 minutes: • Seated systolic blood pressure <85 mmHg • Seated diastolic blood pressure <55 mmHg • Orthostatic hypotension
Patient experiences symptoms that, in the investigator's opinion, could be associated with a reduction in blood pressure and also experiences at least one of the following, confirmed by retest within 15 minutes: • Seated systolic blood pressure <100 mmHg or seated diastolic blood pressure <60 mmHg • Decrease of seated systolic blood pressure of ≥20 mmHg from the previous visit or decrease of seated diastolic blood pressure of ≥10 mmHg from the previous visit • Orthostatic hypotension • Orthostatic tachycardia

participants with IPF = experiment: Phase 2 IPF cohort efficacy: rate of change in ppFVC / FVC to Week 26
Protocol: as §1
The primary objective of the study was to determine the rate of change in ppFVC from baseline to Week 26. The primary objective was evaluated with a two estimand framework to handle the intercurrent event of dose reduction to 10 mg BID or matching PBO when pre-specified low BP criteria is met. The primary estimand is adopted to estimate treatment effect when dose reduction is implemented. The supplementary estimand is adopted to estimate the effect of treatment without dose reduction.
Analysis Strategy: The primary estimand was to evaluate the efficacy of Compound A at 30 mg or 60 mg twice daily, compared to PBO in IPF participants who met the enrollment criteria, with or without use of SoC. The rate of decline in ppFVC (%) from baseline to Week 26 was compared using the difference between each dose and PBO as a population level summary regardless of dose reduction or treatment discontinuation for any reason (treatment policy strategy).
Analysis Strategy: The supplementary estimand for the primary objective is to evaluate the efficacy of Compound A at 30 mg or 60 mg twice daily without dose reduction, compared to the PBO in IPF subjects who met the enrollment criteria, with or without use of SoC. The rate of decline in ppFVC (%) from baseline to Week 26 has been compared using the difference between each dose and PBO as a population level summary regardless of treatment discontinuation for any reason (treatment policy strategy). In the event of dose reduction, data collected after dose reduction will not be considered relevant to the treatment effect of interest and therefore, will be treated as missing (while-on-treatment strategy).

[3] = Active Total (30 mg and 60 mg groups)

**Q.** For `CCCN(C)C(=O)OCc1c(-c2ccc(O[C@H]3CCC[C@H](C(=O)O)C3)c(C)n2)nnn1C` [Compound A, (1S,3S)-3-((2-methyl-6-(1-methyl-5-(((methyl(propyl)carbamoyl)-oxy)methyl)-1H-1,2,3-triazol-4-yl)pyridin-3-yl)oxy)cyclohexane-1-carboxylic acid], which Mean DBP ([1]; MAD 60 mg BID, D 14 320 h) is on record?
**A.** 63 mmHg

**Q.** What about the Mean DBP ([1]; MAD 125 mg BID, D 15 336 h) of the same compound?
**A.** 63 mmHg

**Q.** What about the “Reductions in BP vs placebo” value ([1]; MAD BID groups) of the same compound?
**A.** no clear differences between placebo and the Compound A groups

**Q.** What about the “Reductions in mean SBP and DBP” value ([1]; MAD QD groups) of the same compound?
**A.** reductions generally occurred in a Compound A dose-dependent manner

**Q.** And the “Dose reductions to 10 mg BID due to protocol-defined low BP criteria, %” value ([2]; 30 mg BID)?
**A.** 7.7%

**Q.** And the “Dose reductions to 10 mg BID due to protocol-defined low BP criteria, %” value ([2]; 60 mg BID)?
**A.** 6.5%

**Q.** And the “Risk of orthostatic intolerance, orthostatic hypotension or low BP criteria vs PBO” value ([2]; 60 mg BID)?
**A.** lowest frequencies of orthostatic intolerance, orthostatic hypotension, or pre-specified symptomatic or asymptomatic low BP criteria; also recorded: not associated with any increased risk of orthostatic intolerance, orthostatic hypotension, orthostatic tachycardia, or symptomatic or asymptomatic low BP

**Q.** What about the “Subjects discontinuing study treatment due to a TEAE, %” value [2, 3] of the same compound?
**A.** (8.2) %

**Q.** What about the “Subjects who died due to a TEAE, %” value [2, 3] of the same compound?
**A.** (3.8) %

**Q.** And the “Subjects who died, %” value [2, 3]?
**A.** (4.9) %

**Q.** What about the “Subjects with at least one AESI, %” value [2, 3] of the same compound?
**A.** (14.7) %

**Q.** What about the “Subjects with at least one TEAE related to the study treatment, %” value [2, 3] of the same compound?
**A.** (26.1) %

**Q.** What about the “Subjects with at least one TEAE, %” value [2, 3] of the same compound?
**A.** (75.0) %

**Q.** And the “Subjects with at least one TESAE, %” value [2, 3]?
**A.** (10.9) %

**Q.** What about the “Treatment differences in rates of change in ppFVC with and without background antifibrotic” value (participants with IPF; IPF cohort) of the same compound?
**A.** consistent between both groups

**Q.** What about the “Efficacy vs PBO” value (participants with IPF; IPF, 30 mg BID, overall population) of the same compound?
**A.** did not demonstrate efficacy compared to PBO

**Q.** And the “Response by background SoC subgroup vs PBO” value (participants with IPF; IPF, 60 mg BID, SoC (nintedanib or pirfenidone) and no SoC)?
**A.** favorable responses on the primary endpoint; also recorded: favorable efficacy; also recorded: favorable impact on FVC compared with PBO when used alone or on background therapy with nintedanib or pirfenidone

**Q.** What about the “Treatment response (rate of decline of ppFVC and FVC) vs PBO” value (participants with IPF; IPF, 60 mg BID, Week 26, overall population) of the same compound?
**A.** demonstrated favorable treatment responses versus PBO

**Q.** And the “Slope difference (SE) in rate of decline in FVC, 60 mg - PBO” value (participants with IPF; IPF, 60 mg BID, baseline to Week 26, supplementary estimand, Overall)?
**A.** 61.4 (29.35) mL

**Q.** What about the “Relative treatment benefit (ppFVC decline) compared to PBO” value (“Relative treatment benefit” below) (participants with IPF; IPF, 60 mg BID, primary estimand, not on background SoC) of the same compound?
**A.** 113%

**Q.** And the “Relative treatment benefit” value (participants with IPF; IPF, 60 mg BID, primary estimand, on background SoC)?
**A.** 39%

**Q.** And the “Relative treatment benefit” value (participants with IPF; IPF, 60 mg BID, supplementary estimand, not on background SoC)?
**A.** 123%

**Q.** And the “Relative treatment benefit” value (participants with IPF; IPF, 60 mg BID, supplementary estimand, on background SoC)?
**A.** 44%
